Assay results published in patent publication US20250382332A1, “NOVEL ALPHA-FACTOR BASED PEPTIDES WITH ANTIFUNGAL ACTIVITY” (INVAIO SCIENCES, INC., priority 2024, published 2025).
Peptide text beside a SMILES is read from it.

System: Botrytis cinerea (B05.10)
Experiment: Resazurin antifungal assay of 180 alpha-factor peptide variants towards Botrytis (Example 2)
Format: cell-based
Settings: % inhibition of fungal growth, Botrytis conidia, resazurin; for Inhibition at 10 μM: peptide 10 μM; for Inhibition at 20 μM: peptide 20 μM; for Inhibition at 50 μM: peptide 50 μM; for Inhibition at 100 μM: peptide 100 μM
In short: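 Resazurin viability read-out (570/620 nm fluorescence) after a 24 h, 20° C incubation of B05.10 conidia, 5000 per well, with peptide at final 10-100 μM. Growth inhibition (%) was derived by subtracting conidia-only fluorescence; four replicates per treatment.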

CSCC[C@H](NC(=O)[C@@H]1CCCN1C(=O)[C@H](CCC(N)=O)NC(=O)CNC(=O)[C@@H]1CCCN1C(=O)[C@H](CCCCN)NC(=O)[C@H](Cc1ccccc1)NC(=O)[C@H](CO)NC(=O)[C@H](CC(C)C)NC(=O)[C@H](Cc1ccc(O)cc1)NC(=O)[C@H](Cc1c[nH]cn1)NC(=O)[C@@H](N)CCCCN)C(=O)N[C@@H](Cc1ccc(O)cc1)C(=O)O [compound 94] (H-KHYLSFKPGQPMY-OH; N-terminus and C-terminus assumed)
Inhibition at 10 μM: <90% | Inhibition at 20 μM: <90% | Inhibition at 50 μM: 97.32% | Inhibition at 100 μM: 100%

CSCC[C@H](NC(=O)[C@@H]1CCCN1C(=O)[C@H](CCC(N)=O)NC(=O)CNC(=O)[C@@H]1CCCN1C(=O)[C@H](CCCCN)NC(=O)[C@H](Cc1ccccc1)NC(=O)[C@@H](NC(=O)[C@H](CC(C)C)NC(=O)[C@H](CC(C)C)NC(=O)[C@H](Cc1c[nH]cn1)NC(=O)[C@@H](N)CCCCN)[C@@H](C)O)C(=O)N[C@@H](Cc1ccc(O)cc1)C(=O)O [compound 95] (H-KHLLTFKPGQPMY-OH; N-terminus and C-terminus assumed)
Inhibition at 10 μM: <90% | Inhibition at 20 μM: <90% | Inhibition at 50 μM: 97.12% | Inhibition at 100 μM: 99.99%

CSCC[C@H](NC(=O)[C@@H]1CCCN1C(=O)[C@H](CCC(N)=O)NC(=O)CNC(=O)[C@@H]1CCCN1C(=O)[C@H](CCCCN)NC(=O)[C@H](CC(C)C)NC(=O)[C@@H](NC(=O)[C@H](CC(C)C)NC(=O)[C@H](Cc1ccccc1)NC(=O)[C@H](Cc1c[nH]cn1)NC(=O)[C@@H](N)CCCCN)[C@@H](C)O)C(=O)N[C@@H](Cc1ccc(O)cc1)C(=O)O [compound 96] (H-KHFLTLKPGQPMY-OH; N-terminus and C-terminus assumed)
Inhibition at 10 μM: <90% | Inhibition at 20 μM: <90% | Inhibition at 50 μM: 95.86% | Inhibition at 100 μM: 99.87%

CSCC[C@H](NC(=O)[C@@H]1CCCN1C(=O)[C@H](C)NC(=O)CNC(=O)[C@@H]1CCCN1C(=O)[C@H](CCCNC(=N)N)NC(=O)[C@H](Cc1ccccc1)NC(=O)[C@H](CCC(N)=O)NC(=O)[C@@H](NC(=O)[C@H](Cc1c[nH]c2ccccc12)NC(=O)[C@H](Cc1c[nH]cn1)NC(=O)[C@@H](N)Cc1c[nH]c2ccccc12)C(C)C)C(=O)N[C@@H](Cc1ccc(O)cc1)C(=O)O [compound 97] (H-WHWVQFRPGAPMY-OH; N-terminus and C-terminus assumed)
Inhibition at 10 μM: <90% | Inhibition at 20 μM: <90% | Inhibition at 50 μM: 95.75% | Inhibition at 100 μM: 100%

CSCC[C@H](NC(=O)[C@@H]1CCCN1C(=O)[C@H](CCC(N)=O)NC(=O)CNC(=O)[C@H](CC(N)=O)NC(=O)[C@H](CCCCN)NC(=O)[C@H](CC(C)C)NC(=O)[C@H](CO)NC(=O)CNC(=O)[C@H](Cc1c[nH]c2ccccc12)NC(=O)[C@H](CCCCN)NC(=O)[C@@H](N)Cc1c[nH]c2ccccc12)C(=O)N[C@@H](Cc1ccc(O)cc1)C(=O)O [compound 98] (H-WKWGSLKNGQPMY-OH; N-terminus and C-terminus assumed)
Inhibition at 10 μM: <90% | Inhibition at 20 μM: <90% | Inhibition at 50 μM: 95.59% | Inhibition at 100 μM: 100%

CC[C@H](C)[C@H](NC(=O)[C@H](CCCCN)NC(=O)[C@H](CC(C)C)NC(=O)[C@H](Cc1c[nH]c2ccccc12)NC(=O)[C@H](Cc1c[nH]cn1)NC(=O)[C@@H](N)Cc1c[nH]c2ccccc12)C(=O)N[C@@H](Cc1c[nH]c2ccccc12)C(=O)N1CCC[C@H]1C(=O)NCC(=O)N[C@@H](CCC(N)=O)C(=O)N1CCC[C@H]1C(=O)N[C@@H](CCSC)C(=O)N[C@@H](Cc1ccc(O)cc1)C(=O)O [compound 99] (H-WHWLKIWPGQPMY-OH; N-terminus and C-terminus assumed)
Inhibition at 10 μM: <90% | Inhibition at 20 μM: <90% | Inhibition at 50 μM: 94.66% | Inhibition at 100 μM: 100%

CSCC[C@H](NC(=O)[C@@H]1CCCN1C(=O)[C@H](CCC(N)=O)NC(=O)CNC(=O)[C@@H]1CCCN1C(=O)[C@H](CCCCN)NC(=O)[C@H](Cc1ccccc1)NC(=O)[C@H](CC(N)=O)NC(=O)[C@H](CC(C)C)NC(=O)[C@H](Cc1ccc(O)cc1)NC(=O)[C@H](CCCCN)NC(=O)[C@@H](N)Cc1c[nH]c2ccccc12)C(=O)N[C@@H](Cc1ccc(O)cc1)C(=O)O [compound 100] (H-WKYLNFKPGQPMY-OH; N-terminus and C-terminus assumed)
Inhibition at 10 μM: <90% | Inhibition at 20 μM: <90% | Inhibition at 50 μM: 93.45% | Inhibition at 100 μM: 100%

CSCC[C@H](NC(=O)[C@@H]1CCCN1C(=O)[C@H](CCC(N)=O)NC(=O)CNC(=O)[C@@H]1CCCN1C(=O)[C@H](CCCCN)NC(=O)[C@H](Cc1ccccc1)NC(=O)[C@H](CCCNC(=N)N)NC(=O)[C@H](CC(C)C)NC(=O)[C@@H](NC(=O)[C@H](Cc1c[nH]cn1)NC(=O)[C@@H](N)Cc1c[nH]c2ccccc12)C(C)C)C(=O)N[C@@H](Cc1ccc(O)cc1)C(=O)O [compound 101] (H-WHVLRFKPGQPMY-OH; N-terminus and C-terminus assumed)
Inhibition at 10 μM: <90% | Inhibition at 20 μM: <90% | Inhibition at 50 μM: 90.50% | Inhibition at 100 μM: 100%

CSCC[C@H](NC(=O)[C@@H]1CCCN1C(=O)[C@H](CCC(N)=O)NC(=O)CNC(=O)[C@@H]1CCCN1C(=O)[C@H](CCCCN)NC(=O)[C@H](CC(C)C)NC(=O)[C@@H](NC(=O)[C@H](CC(C)C)NC(=O)[C@H](Cc1ccc(O)cc1)NC(=O)[C@H](Cc1c[nH]cn1)NC(=O)[C@@H](N)CCCCN)[C@@H](C)O)C(=O)N[C@@H](Cc1ccc(O)cc1)C(=O)O [compound 102] (H-KHYLTLKPGQPMY-OH; N-terminus and C-terminus assumed)
Inhibition at 10 μM: <90% | Inhibition at 20 μM: <90% | Inhibition at 50 μM: <90% | Inhibition at 100 μM: 98.51%

CSCC[C@H](NC(=O)[C@@H]1CCCN1C(=O)[C@H](CCC(N)=O)NC(=O)CNC(=O)[C@@H]1CCCN1C(=O)[C@H](CCCCN)NC(=O)[C@H](CC(C)C)NC(=O)[C@H](C)NC(=O)[C@H](CC(C)C)NC(=O)[C@H](Cc1ccc(O)cc1)NC(=O)[C@H](Cc1c[nH]cn1)NC(=O)[C@@H](N)CCCCN)C(=O)N[C@@H](Cc1ccc(O)cc1)C(=O)O [compound 103] (H-KHYLALKPGQPMY-OH; N-terminus and C-terminus assumed)
Inhibition at 10 μM: <90% | Inhibition at 20 μM: <90% | Inhibition at 50 μM: <90% | Inhibition at 100 μM: 98.77%

CC[C@H](C)[C@H](NC(=O)CNC(=O)[C@H](CCCNC(=N)N)NC(=O)[C@@H](N)CCCCN)C(=O)N[C@@H](CC(N)=O)C(=O)N[C@@H](CC(C)C)C(=O)N[C@@H](CCCCN)C(=O)N1CCC[C@H]1C(=O)NCC(=O)N[C@@H](CCC(N)=O)C(=O)N1CCC[C@H]1C(=O)N[C@@H](CCSC)C(=O)N[C@@H](Cc1ccc(O)cc1)C(=O)O [compound 104] (H-KRGINLKPGQPMY-OH; N-terminus and C-terminus assumed)
Inhibition at 10 μM: <90% | Inhibition at 20 μM: <90% | Inhibition at 50 μM: <90% | Inhibition at 100 μM: 99.59%

CC[C@H](C)[C@H](NC(=O)[C@H](Cc1c[nH]cn1)NC(=O)[C@@H](N)Cc1c[nH]c2ccccc12)C(=O)N[C@@H](CC(C)C)C(=O)N[C@@H](CCCNC(=N)N)C(=O)N[C@@H](Cc1ccccc1)C(=O)N[C@@H](CCCCN)C(=O)N[C@@H](CC(N)=O)C(=O)NCC(=O)N[C@@H](CCSC)C(=O)N1CCC[C@H]1C(=O)N[C@@H](CCSC)C(=O)N[C@@H](Cc1ccc(O)cc1)C(=O)O [compound 105] (H-WHILRFKNGMPMY-OH; N-terminus and C-terminus assumed)
Inhibition at 10 μM: <90% | Inhibition at 20 μM: <90% | Inhibition at 50 μM: <90% | Inhibition at 100 μM: 100%

CSCC[C@H](NC(=O)[C@@H]1CCCN1C(=O)[C@H](CCC(=O)O)NC(=O)CNC(=O)[C@H](CCCCN)NC(=O)[C@H](CCCCN)NC(=O)[C@H](CC(C)C)NC(=O)[C@H](CCC(N)=O)NC(=O)[C@@H](NC(=O)[C@H](Cc1c[nH]c2ccccc12)NC(=O)[C@H](Cc1c[nH]cn1)NC(=O)[C@@H](N)Cc1c[nH]c2ccccc12)C(C)C)C(=O)N[C@@H](Cc1ccc(O)cc1)C(=O)O [compound 106] (H-WHWVQLKKGEPMY-OH; N-terminus and C-terminus assumed)
Inhibition at 10 μM: <90% | Inhibition at 20 μM: <90% | Inhibition at 50 μM: <90% | Inhibition at 100 μM: 100%

CSCC[C@H](NC(=O)[C@@H]1CCCN1C(=O)[C@H](CCC(N)=O)NC(=O)CNC(=O)[C@@H]1CCCN1C(=O)[C@H](CCCCN)NC(=O)[C@H](CC(C)C)NC(=O)[C@H](CO)NC(=O)[C@H](CC(C)C)NC(=O)[C@H](Cc1ccccc1)NC(=O)[C@H](Cc1c[nH]cn1)NC(=O)[C@@H](N)CCCCN)C(=O)N[C@@H](Cc1ccc(O)cc1)C(=O)O [compound 107] (H-KHFLSLKPGQPMY-OH; N-terminus and C-terminus assumed)
Inhibition at 10 μM: <90% | Inhibition at 20 μM: <90% | Inhibition at 50 μM: <90% | Inhibition at 100 μM: 98.74%

CSCC[C@H](NC(=O)[C@@H]1CCCN1C(=O)[C@H](CCC(N)=O)NC(=O)CNC(=O)[C@H](Cc1ccc(O)cc1)NC(=O)[C@H](CC(N)=O)NC(=O)[C@H](CC(C)C)NC(=O)[C@H](CCCCN)NC(=O)[C@H](CC(C)C)NC(=O)[C@H](Cc1c[nH]c2ccccc12)NC(=O)[C@H](Cc1c[nH]cn1)NC(=O)[C@@H](N)Cc1c[nH]c2ccccc12)C(=O)N[C@@H](Cc1ccc(O)cc1)C(=O)O [compound 108] (H-WHWLKLNYGQPMY-OH; N-terminus and C-terminus assumed)
Inhibition at 10 μM: <90% | Inhibition at 20 μM: <90% | Inhibition at 50 μM: <90% | Inhibition at 100 μM: 100%
